In general, inhibition refers to the percentage by which the read-out fell short of the control.

Type in all cases: cell-based
One experiment concerns Gaeumannomyces graminis. Kind of experiment: Test Example 2: in vitro antimicrobial activity test, colony diameter on PDA plate with chemicals, 20° C., three days.
Experiment [1] deals with Pseudocercosporella herpotrichoides. In words: Test Example 3: in vitro antimicrobial activity test, colony diameter on PDA plate with chemicals, 20° C., seven days. As for the experimental part: (§1) On the other hand, Glomerella cingulata was punched out from the vicinity of a Glomerella cingulata colony that was cultured in advance on another plate culture medium free of the chemicals using a cork borer having a diameter of 4 mm, and inoculated on the PDA plate culture medium in which the chemicals were mixed. After culturing at 25° C. for seven days, the diameter of the grown colony was measured. […] Additionally, in the above formula, R represents a fungal growth inhibition rate (%), dc represents the diameter of a colony on an untreated plate, and dt represents the diameter of a colony on a chemical-treated plate.
(§2) Inhibition rate when used as a mixture (theoretical value)=α+(100−α)×β)/100 Note that, in the formula above, α and β respectively represent the inhibition rates of the compounds during single use of the compounds.
Pseudocercosporella herpotrichoides was punched out from the vicinity of a Pseudocercosporella herpotrichoides colony using a cork borer having a diameter of 4 mm, and inoculated on the PDA plate culture medium in which the chemicals were mixed. After culturing at 20° C. for seven days, the diameter of the grown colony was measured.

The test system of the next experiment is Septoria tritici. In words: Test Example 4: in vitro antimicrobial activity test, colony diameter on PDA plate with chemicals, 25° C., 14 days. As for the experimental part: as §1, §2
In this test example, the antimicrobial action of a mixed formulation of compound (1) and trifloxystrobin against Septoria tritici was tested.
Septoria tritici was punched out from the vicinity of a Septoria tritici colony that was cultured in advance on another plate culture medium free of the chemicals using a cork borer having a diameter of 4 mm, and inoculated on the PDA plate culture medium in which the chemicals were mixed.

The subject of the next experiment is Rhynchosporium secalis. Kind of experiment: Test Example 5: in vitro antimicrobial activity test, colony diameter on PDA plate with chemicals, 25° C., 14 days.
In the next experiment the test system is Glomerella cingulata. Kind of experiment: Test Example 1: in vitro antimicrobial activity test, colony diameter on PDA plate with chemicals, 25° C., seven days. As for the experimental part: as §1
Experiment [2] relates to Pyrenophora graminea. In words: Test Example 7: in vitro antimicrobial activity test (dimoxystrobin), same manner as Test Example 6. The note with it: Compound (1) 0 ppm. As for the experimental part: as §1, §2
(§3) Pyrenophora graminea was punched out from the vicinity of a Pyrenophora graminea colony that was cultured in advance on another plate culture medium free of the chemicals using a cork borer having a diameter of 4 mm, and inoculated on the PDA plate culture medium in which the chemicals were mixed. After culturing at 25° C. for 3 days, the diameter of the grown colony was measured.

Experiment [3] has as its system Pyrenophora graminea. In words: Test Example 6: in vitro antimicrobial activity test (picoxystrobin), colony diameter on PDA plate with chemicals, 25° C., 3 days. The note with it: Compound (1) 0 ppm. As for the experimental part: as §1, §2, §3
The mark [4] stands for this setting: Oculimacula yallundae, read-out: Fungal growth inhibition rate (%) Measured value.
The mark [5] stands for this setting: Colletotrichum gloeosporioides, read-out: Fungal growth inhibition rate (%) Measured value.
Where [6] appears, read: Zymoseptoria tritici, read-out: Fungal growth inhibition rate (%) Measured value.

Method for Gaeumannomyces graminis: On the other hand, Glomerella cingulata was punched out from the vicinity of a Glomerella cingulata colony that was cultured in advance on another plate culture medium free of the chemicals using a cork borer having a diameter of 4 mm, and inoculated on the PDA plate culture medium in which the chemicals were mixed. After culturing at 25° C. for seven days, the diameter of the grown colony was measured. […] Additionally, in the above formula, R represents a fungal growth inhibition rate (%), dc represents the diameter of a colony on an untreated plate, and dt represents the diameter of a colony on a chemical-treated plate. […] Meanwhile, Gaeumannomyces graminis was punched out from the periphery of a colony of Gaeumannomyces graminis using a cork borer having a diameter of 4 mm, and inoculated onto the PDA agar plates in which the chemical(s) was (were) mixed.
Method for Rhynchosporium secalis: Additionally, in the above formula, R represents a fungal growth inhibition rate (%), dc represents the diameter of a colony on an untreated plate, and dt represents the diameter of a colony on a chemical-treated plate. […] Rhynchosporium secalis was punched out from the vicinity of a Rhynchosporium secalis colony that was cultured in advance on another plate culture medium free of the chemicals using a cork borer having a diameter of 4 mm, and inoculated on the PDA plate culture medium in which the chemicals were mixed. After culturing at 25° C. for 14 days, the diameter of the grown colony was measured.

As to `CO/C=C(/C(=O)OC)c1ccccc1Oc1cc(Oc2ccccc2C#N)ncn1` [Azoxystrobin, azoxystrobin], the “Fungal growth inhibition rate (%) Measured value” in the experiment with Gaeumannomyces graminis (Compound (1) 0 ppm, Azoxystrobin 0.010 ppm) was found to be 35%; in the experiment on Gaeumannomyces graminis (Compound (1) 0 ppm, Azoxystrobin 2.5 ppm), 98%.
Regarding `COC(=O)C1(C)CCC(Cc2ccc(Cl)cc2)C1(O)Cn1cncn1` (centres unmarked) [Compound (1)], the “Fungal growth inhibition rate (%) Measured value” came to 7% in experiment [1] (Compound (1) 0.078 ppm, Kresoxim-methyl 0 ppm); 0% in the experiment with Gaeumannomyces graminis (Compound (1) 0.078 ppm, Azoxystrobin 0 ppm); 9% in the experiment with Septoria tritici (Compound (1) 0.02 ppm, Trifloxystrobin 0 ppm); 87% with Rhynchosporium secalis (Compound (1) 1.25 ppm, Fluoxastrobin 0 ppm); 45% with Glomerella cingulata (Compound (1) 0.313 ppm, Pyraclostrobin 0 ppm).
Regarding `CNC(=O)/C(=N/OC)c1ccccc1COc1cc(C)ccc1C` [Dimoxystrobin, dimoxystrobin], the “Fungal growth inhibition rate (%) Measured value” in the experiment with Pyrenophora graminea [2] (Dimoxystrobin 0.005 ppm) came to 28%; in the experiment with Pyrenophora graminea [2] (Dimoxystrobin 0.02 ppm) it was 55%; in the experiment on Pyrenophora graminea [2] (Dimoxystrobin 0.08 ppm), 71%.
With `CO/N=C(/C1=NOCCO1)c1ccccc1Oc1ncnc(Oc2ccccc2Cl)c1F` [Fluoxastrobin, fluoxastrobin], in the experiment on Rhynchosporium secalis (Rhynchosporium secalis, read-out: Fungal growth inhibition rate (%) Measured value), the inhibition at 0.005 ppm is 25%.
For `CO/N=C(/C(=O)OC)c1ccccc1COc1ccccc1C` [Kresoxim-methyl, kresoxim-methyl], in experiment [1] (setting [4]), the inhibition at 0.02 ppm was determined as 21%, the inhibition at 0.08 ppm turned out to be 34%, the inhibition at 0.31 ppm was found to be 60% and the inhibition at 1.25 ppm was 90%.
Turning to `CO/C=C(/C(=O)OC)c1ccccc1COc1cccc(C(F)(F)F)n1` [Picoxystrobin, picoxystrobin], the “Fungal growth inhibition rate (%) Measured value” in the experiment with Pyrenophora graminea [3] (Picoxystrobin 0.005 ppm) was determined as 36%; in the experiment with Pyrenophora graminea [3] (Picoxystrobin 0.02 ppm) it was 57%; in the experiment on Pyrenophora graminea [3] (Picoxystrobin 0.08 ppm), 71%; in the experiment with Pyrenophora graminea [3] (Picoxystrobin 0.31 ppm) it was 87%; with Pyrenophora graminea [3] (Picoxystrobin 1.25 ppm) it was 94%.
Consider `COC(=O)N(OC)c1ccccc1COc1ccn(-c2ccc(Cl)cc2)n1` [Pyraclostrobin, pyraclostrobin], for which, in the experiment with Glomerella cingulata (setting [5]), the inhibition at 0.1575 ppm worked out at 73%, the inhibition at 0.63 ppm came out at 89% and the inhibition at 10 ppm was found to be 100%.
With `CON=C(C(=O)OC)c1ccccc1CON=C(C)c1cccc(C(F)(F)F)c1` [Trifloxystrobin, trifloxystrobin], in the experiment with Septoria tritici (setting [6]), the inhibition at 0.02 ppm was determined as 82%, the inhibition at 0.08 ppm was 84% and the inhibition at 0.31 ppm is 86%.

The values are drawn from US9750254B2, “Agricultural or horticultural chemical, method of controlling plant diseases, and product for controlling plant diseases” (Kureha Corporation, priority 2013, dated 2017).
